Experiment: IV study in dogs: plasma insulin and glucose after IV injection of human insulin
Type: in vivo, Mongrel dogs
Procedure: Oral bioavailability of insulin composition was determined using an IV study followed by an oral crossover study and the relative areas of under the curve, plasma half life, Cmax, and Tmax was calculated. […] Following data collection, plasma concentration, plasma half-life, peak concentration (Cmax) and time to reach Cmax (tmax) were determined. From the areas under the curve, percent oral bioavailability was determined.

[1] = dog #71, IV 0.01 mg/kg, 120 min
[2] = dog #71, IV 0.01 mg/kg, 180 min
[3] = dog #71, IV 0.01 mg/kg, 240 min
[4] = dog #72, IV 0.01 mg/kg, 120 min
[5] = dog #72, IV 0.01 mg/kg, 180 min
[6] = dog #72, IV 0.01 mg/kg, 240 min

## human insulin: human insulin given by IV injection (0.01 mg/kg) as reference in the dog study
Dog #71, IV 0.01 mg/kg, 2 min
  Plasma Glucose: 89 mg/dL
  Plasma Insulin: 50.2 ng/mL
Dog #71, IV 0.01 mg/kg, 5 min
  Plasma Glucose: 82 mg/dL
  Plasma Insulin: 26.6 ng/mL
Dog #71, IV 0.01 mg/kg, 10 min
  Plasma Glucose: 57 mg/dL
Dog #71, IV 0.01 mg/kg, 15 min
  Plasma Glucose: 46 mg/dL
  Plasma Insulin: 10.1 ng/mL
Dog #71, IV 0.01 mg/kg, 20 min
  Plasma Glucose: 41 mg/dL
Dog #71, IV 0.01 mg/kg, 25 min
  Plasma Glucose: 42 mg/dL
  Plasma Insulin: 5.9 ng/mL
Dog #71, IV 0.01 mg/kg, 40 min
  Plasma Glucose: 39 mg/dL
Dog #71, IV 0.01 mg/kg, 60 min
  Plasma Glucose: 48 mg/dL
[1]
  Plasma Glucose: 69 mg/dL
  Plasma Insulin: 0.19 ng/mL
[2]
  Plasma Glucose: 87 mg/dL
  Plasma Insulin: 0.08 ng/mL
[3]
  Plasma Glucose: 86 mg/dL
  Plasma Insulin: 0.08 ng/mL
Dog #72, IV 0.01 mg/kg, 2 min
  Plasma Glucose: 89 mg/dL
  Plasma Insulin: 27.3 ng/mL
Dog #72, IV 0.01 mg/kg, 5 min
  Plasma Glucose: 60 mg/dL
  Plasma Insulin: 21.4 ng/mL
Dog #72, IV 0.01 mg/kg, 10 min
  Plasma Glucose: 31 mg/dL
Dog #72, IV 0.01 mg/kg, 15 min
  Plasma Glucose: 28 mg/dL
Dog #72, IV 0.01 mg/kg, 20 min
  Plasma Glucose: 35 mg/dL
  Plasma Insulin: 3.4 ng/mL
Dog #72, IV 0.01 mg/kg, 25 min
  Plasma Glucose: 24 mg/dL
Dog #72, IV 0.01 mg/kg, 40 min
  Plasma Glucose: 21 mg/dL
  Plasma Insulin: 0.7 ng/mL
Dog #72, IV 0.01 mg/kg, 60 min
  Plasma Glucose: 33 mg/dL
  Plasma Insulin: 0.2 ng/mL
[4]
  Plasma Glucose: 68 mg/dL
  Plasma Insulin: 0.04 ng/mL
[5]
  Plasma Glucose: 102 mg/dL
  Plasma Insulin: 0 ng/mL
[6]
  Plasma Glucose: 99 mg/dL
  Plasma Insulin: 0.04 ng/mL
